2 molecules from publication PMC8304608, “Impact of Membrane Lipids on UapA and AzgA Transporter Subcellular Localization and Activity in Aspergillus nidulans” (Journal of Fungi, 2021) can be followed below.

In one data set the target is T1, UapA (Aspergillus nidulans, UniProt Q07307).
T1 construct: full-length in native germinating conidiospores; GFP-tagged UapA under native promoter used for localization (functionally replaces untagged); homodimer
In words: radiolabelled uptake in germinating conidiospores. The conditions noted are these: apparent Km; wild-type lipid background; [8-3H]-xanthine 0.1 μM with unlabelled substrate 0.5-1000 μM; pH 6.8, 37 °C; labelled compound; background of strain lacking transporter subtracted; read-out: Xanthine Uptake Kinetics / Km. In kind it is cell-based. The source says:
radiolabelled uptake in germinating conidiospores on UapA

Substrate in data set [1]: Nc1ncnc2nc[nH]c12
In words: radiolabelled uptake in germinating conidiospores. In kind it is cell-based, Aspergillus nidulans. The conditions noted are these: apparent Km, wild-type lipid background, [2,8-3H]-adenine 0.1 μM with unlabelled substrate 0.5-1000 μM, pH 6.8, 37 °C, labelled compound, background of strain lacking transporter subtracted. The source says: radiolabelled uptake in germinating conidiospores on AzgA

T1 sequence (Q07307 whole entry): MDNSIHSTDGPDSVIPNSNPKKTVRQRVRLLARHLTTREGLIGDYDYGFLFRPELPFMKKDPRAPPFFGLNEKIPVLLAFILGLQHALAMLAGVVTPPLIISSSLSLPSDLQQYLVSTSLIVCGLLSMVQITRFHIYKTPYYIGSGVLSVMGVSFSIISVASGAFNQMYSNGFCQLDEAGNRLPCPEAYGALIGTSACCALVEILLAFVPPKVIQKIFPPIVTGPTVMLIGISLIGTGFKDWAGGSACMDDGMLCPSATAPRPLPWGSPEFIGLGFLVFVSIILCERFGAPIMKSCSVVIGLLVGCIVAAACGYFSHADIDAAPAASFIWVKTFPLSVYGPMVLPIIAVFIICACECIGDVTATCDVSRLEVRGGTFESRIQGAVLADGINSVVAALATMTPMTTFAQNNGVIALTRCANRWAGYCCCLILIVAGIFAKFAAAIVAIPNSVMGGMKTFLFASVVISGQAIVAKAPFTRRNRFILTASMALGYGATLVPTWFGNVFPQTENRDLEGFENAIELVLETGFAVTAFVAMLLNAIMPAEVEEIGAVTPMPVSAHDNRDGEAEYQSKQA

In the case of `O=c1[nH]c(=O)c2[nH]cnc2[nH]1` [xanthine], the Km on UapA was 5 ± 1 µM.

B1: AzgA (Aspergillus nidulans) (protein)
chain: MGYAEWIGRTNAAVARSPVGRWFRLEGSGHPRERKGAYFFTELRAGLATFFAMAYIISVNANITSDTGGTCVCPAEDLATACDNNTEYLLCKQEVNRDLVTATAAIAAIASFFLGLLANLPVALAPGMGLNAYFAYTVVGHHGTGLIPYSLAVTAVFVEGWIFLGLTLLGIRQWLARAIPASIKLATGAGIGLYLTLIGLSYSAGLGVVQGGTSSPIQLAGCASDTFGDDGLCPSSEKMRNPTMWIGIFCGGVFTVFLMMYRVKGAVIAGILLVSIISWPRPTPVTYFPHTETGDSSFDFFKKVVTFHPIQHTLVAQEWNISSNGGQFGLALITFLYVDILDATGTLYSMAKFAGAMDERTQDFEGSAMAYMVDAICISIGSLFGSPPVTAFVESGAGISEGGKTGLTSCMTGICFFIAVFFAPIFASIPPWATGSTLVIVGSMMMHATLEINWRYLGDAVPAFLTISLMPFTYSIADGLIAGILSYILINGGVWIVAKLTGGRISPPNREEEHEPWTWKIPGGFFPPWLVRAVHGKKDFWRAEDDANDLSLGVMPHGSLSSQDRAGEKLASSKEQVTEK
notes: full-length in native germinating conidiospores; GFP-tagged AzgA under native promoter used for localization (functionally replaces untagged)
B1: in data set [1], the Km stood at 3 ± 1 µM.
